According to publication PMC11369174, “Proteome-scale characterisation of motif-based interactome rewiring by disease mutations” (Molecular Systems Biology, 2024):
“Also recorded” adds a separate entry of the source.

Tests used:
MAP1LC3B ATG8 [1] = molecular target: T1, MAP1LC3B ATG8 (Homo sapiens, UniProt Q9GZQ8); assay: FP displacement assay, MAP1LC3B ATG8; type: binding; details: for Kd: read-out: KD-values [µM] + SEM
Experimental: (§1) FP experiments were performed, as previously described (Kliche et al, [2021], [2023]), on an iD5 plate reader (Molecular devices) using black half-area non-binding 96-well plates (Corning). In order to calculate the FP signal in millipolarisation (mP), the FITC-labelled peptides were excited at 485 nm and the emitted light was measured at 535 nm in two different angles. For saturation experiments, a dilution series of the respective protein domains was generated (25 µL) and 10 nM fluorescein isothiocyanate (FITC)-labelled peptide (diluted in 50 mM sodium phosphate buffer pH 7.4, 0.05% Tween) were added in an end volume of 50 µL. A control experiment titrating GST was performed for the binding of the NEDD4 WW2 domain, since the GST-tagged construct was used for affinity measurements. For fitting the data, the buffer-corrected reduced values were plotted in GraphPad PRISM against the respective protein concentration and the KD-values were obtained by fitting against the quadratic equation (Gianni et al, [2005]).
(§2) The buffer-corrected reduced values were subsequently plotted against the logarithmic unlabelled peptide concentration to derive the IC50 values by using the sigmoidal dose-response (x is logarithmic) fit in GraphPad PRISM and calculate the KD values as described previously (Nikolovska-Coleska et al, [2004]).

MAP1LC3B ATG8 [2] = molecular target: T1, MAP1LC3B ATG8; assay: GenVar_HD2 ProP-PD phage selection, MAP1LC3B ATG8; details: bait MAP1LC3B ATG8; from NGS counts of overlapping wild-type/mutant library peptide pairs; positive = mutation enhances, negative = disrupts binding
Experimental: Phage display screens were performed according to previous reports (Benz et al, [2022]; Ali et al, [2020]) and for four consecutive selection rounds with five to six replicates per bait protein domain against the […] library.
On the first day, both bait (15 µg in 100 µL PBS) and control protein domains (GST and MBP; 10 µg in 100 µL PBS) were immobilised on a 96-well MaxiSorb plate (Nunc) overnight in the cold room while shaking. Additionally, a 10 mL culture of Omnimax E. coli bacteria supplemented with 10 µg/mL tetracycline was incubated overnight at 37 °C at 200 rpm.
First, protein solutions were removed from both control and bait protein domain plates and the wells were blocked with 0.5% BSA in PBS (200 µL/well) for 1 h in the cold room while shaking. After that, three Omnimax E. coli cultures were started supplemented with either 30 µg/mL kanamycin, 100 µg/mL carbenicillin and 10 µg/mL tetracycline and incubated at 37 °C and 200 rpm. The two first cultures served as a means to check for helper phage contamination (kanamycin) and phages with library phagemid contamination (carbenicillin) of the culture used for elution of the phages during selections. The tetracycline Omnimax E. coli culture was grown until OD at 600 nm reached 0.6–0.8.
Naïve phage libraries were precipitated (10 µL/well of bait protein domain) by diluting the library tenfold with PBS, adding one-fourth of 20% […] and 400 mM NaCl and incubating the mixture for 15 min on ice. Subsequently, phages were spun down for 15 min at 13,000 × g and resuspended in 0.5% BSA and 0.05% Tween-20 in PBS (100 µL/well). Control domain plates were washed four times with 200 µL 0.05% Tween-20 in PBS, 100 µL of the naïve phage library (10^11 phages/mL) were added to every well and the plates incubated for 1 h in the cold room while shaking. Next, protein bait domain plates were washed four times with 0.05% Tween-20 in PBS and the phage solution from the control protein plate was transferred to the respective wells on the protein bait domain plate. […]

KPNA4 ARM = assay: GenVar_HD2 ProP-PD phage selection, KPNA4 ARM; type: binding, human; details: for max_promiscuity / max_specificity: bait-prey protein level, bait_accession O00629; for Mutation enrichment score: bait KPNA4 ARM, from NGS counts of overlapping wild-type/mutant library peptide pairs, positive = mutation enhances, negative = disrupts binding
MAP1LC3B ATG8 [3] = molecular target: T1, MAP1LC3B ATG8; assay: Isothermal titration calorimetry, MAP1LC3B ATG8; type: binding; parameters: S∆T / ∆H: unit not given here; details: ITC; for N (stoichiometry of the interaction): N value from the fit or set if necessary
KPNA4 ARM major = KPNA4 ARM major (Homo sapiens, UniProt O00629); assay: FP displacement assay, KPNA4 ARM major pocket; type: binding; details: from FP displacement KD values, KPNA4 ARM major pocket
Experimental: as §1, §2

KPNA7 ARM major = KPNA7 ARM major (Homo sapiens, UniProt A9QM74); assay: FP displacement assay, KPNA7 ARM major pocket; type: binding; details: for Kd: read-out: KD-values [µM] + SEM
Experimental: as §1, §2

NEDD4 WW2 = NEDD4 WW2 (Homo sapiens, UniProt P46934); assay: FP displacement assay, NEDD4 WW2; type: binding; details: read-out: KD-values [µM] + SEM
Experimental: For saturation experiments, a dilution series of the respective protein domains was generated (25 µL) and 10 nM fluorescein isothiocyanate (FITC)-labelled peptide (diluted in 50 mM sodium phosphate buffer pH 7.4, 0.05% Tween) were added in an end volume of 50 µL. A control experiment titrating GST was performed for the binding of the NEDD4 WW2 domain, since the GST-tagged construct was used for affinity measurements.
If the raw values indicated a FITC-contamination of the unlabelled peptide, the data was excluded and a new batch of peptide was ordered for remeasuring the affinity.

ABL1 SH3 = ABL1 SH3 (Homo sapiens, UniProt P00519); assay: GenVar_HD2 ProP-PD phage selection, ABL1 SH3; type: binding; details: for confidence: confidence of the enriched peptide; for overlap: overlapping peptides; for replicates: replicates in which the peptide was found; for mutant_found: True/False if a mutated peptide was found in selection; for wildtype_found: True/False if a wild type peptide was found in selection; for mutation_effect_on_PPI: bait-mutation pair categorized as diminished, enhanced or no_effect; for max_mutant_confidence: maximum confidence for an enriched mutated peptide; for max_wildtype_confidence: maximum confidence for an enriched wild type peptide
[4] = KD (isothermal titration calorimetry), 50 mM sodium phosphate pH 7.4, 1 mM DTT, peptide titrated in tenfold excess, 16 injections
[5] = bait domain-prey protein level, bait ABL1_SH3__P00519_60_121
[6] = phage selection, bait ABL1_SH3__P00519_60_121

KPNA7 ARM major, sequence (A9QM74 66-488 limits assumed): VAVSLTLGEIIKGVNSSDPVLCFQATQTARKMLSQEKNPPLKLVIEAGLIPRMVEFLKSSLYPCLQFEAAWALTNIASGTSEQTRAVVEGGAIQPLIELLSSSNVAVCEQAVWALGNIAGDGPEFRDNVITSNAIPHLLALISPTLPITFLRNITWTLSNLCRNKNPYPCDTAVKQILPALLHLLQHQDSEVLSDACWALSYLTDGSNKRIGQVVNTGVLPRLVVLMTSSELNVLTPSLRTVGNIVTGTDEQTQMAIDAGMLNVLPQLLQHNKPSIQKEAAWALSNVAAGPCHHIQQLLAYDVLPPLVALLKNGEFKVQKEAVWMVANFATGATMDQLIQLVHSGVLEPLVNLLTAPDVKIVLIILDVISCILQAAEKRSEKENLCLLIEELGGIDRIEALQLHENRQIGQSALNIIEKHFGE
ABL1 SH3, sequence (P00519 60-121): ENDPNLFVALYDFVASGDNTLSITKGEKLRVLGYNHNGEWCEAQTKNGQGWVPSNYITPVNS
KPNA4 ARM major, sequence (O00629 68-487): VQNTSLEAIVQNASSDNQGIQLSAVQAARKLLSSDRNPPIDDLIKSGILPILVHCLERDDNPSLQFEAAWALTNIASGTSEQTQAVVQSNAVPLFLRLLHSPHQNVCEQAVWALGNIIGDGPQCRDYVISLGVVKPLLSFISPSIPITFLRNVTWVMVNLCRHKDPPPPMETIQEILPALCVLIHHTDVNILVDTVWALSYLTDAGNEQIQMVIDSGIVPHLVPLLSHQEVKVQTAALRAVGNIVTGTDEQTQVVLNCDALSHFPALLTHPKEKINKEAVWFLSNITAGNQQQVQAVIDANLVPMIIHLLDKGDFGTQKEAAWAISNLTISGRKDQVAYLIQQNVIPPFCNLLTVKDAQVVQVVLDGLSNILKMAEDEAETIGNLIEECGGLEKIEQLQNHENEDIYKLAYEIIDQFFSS
NEDD4 WW2, sequence (P46934 765-803 limits assumed): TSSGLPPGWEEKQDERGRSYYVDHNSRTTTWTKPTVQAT

CC(=O)NCC(=O)N[C@@H](CC(=O)O)C(=O)N[C@@H](CC(=O)O)C(=O)N[C@@H](CC(=O)O)C(=O)N[C@@H](Cc1c[nH]c2ccccc12)C(=O)N[C@H](C(=O)N[C@@H](Cc1c[nH]cn1)C(=O)N[C@@H](CC(C)C)C(=O)N[C@@H](CO)C(=O)N[C@@H](CO)C(=O)N[C@@H](CCCCN)C(=O)N[C@@H](CCC(=O)O)C(=O)N[C@H](C(=O)N[C@@H](CC(=O)O)C(=O)N[C@@H](CC(C)C)C(=O)N[C@@H](CO)C(N)=O)C(C)C)[C@@H](C)O [SQSTM1_334-349 P348L]
effect of the mutation on binding (in words) (MAP1LC3B ATG8 [1]; FP affinity measurements, MAP1LC3B ATG8): the mutation has no impact on binding; also recorded: did not affect the binding
Kd (MAP1LC3B ATG8 [1]): 0.6 ± 0.1 µM
Mutation enrichment score (MAP1LC3B ATG8 [2]): 7.6

CC(=O)NCC(=O)N[C@@H](CC(=O)O)C(=O)N[C@@H](CC(=O)O)C(=O)N[C@@H](CC(=O)O)C(=O)N[C@@H](Cc1c[nH]c2ccccc12)C(=O)N[C@H](C(=O)N[C@@H](Cc1c[nH]cn1)C(=O)N[C@@H](CC(C)C)C(=O)N[C@@H](CO)C(=O)N[C@@H](CO)C(=O)N[C@@H](CCCCN)C(=O)N[C@@H](CCC(=O)O)C(=O)N[C@H](C(=O)N[C@@H](CC(=O)O)C(=O)N1CCC[C@H]1C(=O)N[C@@H](CO)C(N)=O)C(C)C)[C@@H](C)O [SQSTM1_334-349 wild-type]
Kd (MAP1LC3B ATG8 [1]): 0.5 ± 0.1 µM

A7E2Y1
max_promiscuity (KPNA4 ARM): 10
max_specificity (KPNA4 ARM): 0.7829

Ac-EDEVYEILRDTSEEDS-NH2 [BRCA2_292-307 T298I/V299L/V300R]
Kd (MAP1LC3B ATG8 [1]): 0.52 ± 0.01 µM
Ka (MAP1LC3B ATG8 [3]; replicate 1): 388000
S∆T (MAP1LC3B ATG8 [3]; replicate 1): 3.04
∆H (MAP1LC3B ATG8 [3]; replicate 1): -6718
N (stoichiometry of the interaction) (MAP1LC3B ATG8 [3]; replicate 1): 0.744
Ka (MAP1LC3B ATG8 [3]; replicate 2): 524000
S∆T (MAP1LC3B ATG8 [3]; replicate 2): 3.49
∆H (MAP1LC3B ATG8 [3]; replicate 2): -6766
N (stoichiometry of the interaction) (MAP1LC3B ATG8 [3]; replicate 2): 0.685
Ka (MAP1LC3B ATG8 [3]; replicate 3): 3280000
S∆T (MAP1LC3B ATG8 [3]; replicate 3): 8.75
∆H (MAP1LC3B ATG8 [3]; replicate 3): -6280
N (stoichiometry of the interaction) (MAP1LC3B ATG8 [3]; replicate 3): 0.649
Kd (MAP1LC3B ATG8 [3]; [4]): 2 µM
Mutation enrichment score (MAP1LC3B ATG8 [2]): 15

Ac-EDEVYETVVDTSEEDS-NH2 [BRCA2_292-307 wild-type]
Kd (MAP1LC3B ATG8 [1]): 3.12 ± 0.08 µM
Ka (MAP1LC3B ATG8 [3]; replicate 1): 9160
S∆T (MAP1LC3B ATG8 [3]; replicate 1): -1.5
∆H (MAP1LC3B ATG8 [3]; replicate 1): -5832
N (stoichiometry of the interaction) (MAP1LC3B ATG8 [3]; replicate 1): 0.70
Ka (MAP1LC3B ATG8 [3]; replicate 2): 55000
S∆T (MAP1LC3B ATG8 [3]; replicate 2): 13.7
∆H (MAP1LC3B ATG8 [3]; replicate 2): -2389
N (stoichiometry of the interaction) (MAP1LC3B ATG8 [3]; replicate 2): 0.684
Kd (MAP1LC3B ATG8 [3]; average of the Kd [µM] column, wild-type technical duplicate, mutant technical triplets, read-out: Average Kd): 64 µM
Kd (MAP1LC3B ATG8 [3]; [4]): 20 to 100 µM

Ac-EPSEKCTRLEEEIVEY-NH2 [CDC45_152-166 R157C]
weakened binding, mutant vs wild-type peptide (KPNA4 ARM major): 70 fold
loss of binding, mutant vs wild-type peptide (KPNA7 ARM major; from FP displacement KD values, KPNA7 ARM major pocket): 50 fold
Kd (KPNA7 ARM major): 380 ± 15 µM
Mutation enrichment score (KPNA4 ARM): −7

Ac-EPSEKRTRLEEEIVEY-NH2 [CDC45_152-166 wild-type]
Kd (KPNA7 ARM major): 6.6 ± 0.7 µM

Ac-LDLDDRWQFKRSQLLD-NH2 [ABRAXAS1_349-364 R361Q]
weakened binding, mutant vs wild-type peptide (KPNA4 ARM major): 400 fold
Mutation enrichment score (KPNA4 ARM): −6

Ac-PIPGTPPPNYDSLRLQ-NH2 [SCNN1B_611-626 wild-type]
Kd (NEDD4 WW2): 39 ± 3 µM

Ac-YPRMPEAARPVAPAPAAP-NH2 [TP53_64-80 P72R]
Mutation enrichment score (ABL1 SH3; bait ABL1 SH3, from NGS counts of overlapping wild-type/mutant library peptide pairs, positive = mutation enhances, negative = disrupts binding): −6

EGR2
max_promiscuity (ABL1 SH3; [5]): 5
max_specificity (ABL1 SH3; [5]): 0.973

EPRFSPPHSPPGPAMP
promiscuity (ABL1 SH3; [6]): 2
specificity (ABL1 SH3; [6]): 0.9643
confidence (ABL1 SH3; [6]): 3
overlap (ABL1 SH3; [6]): 1
replicates (ABL1 SH3; [6]): 5

EPRFSPPPSPPGPAMP
promiscuity (ABL1 SH3; [6]): 5
specificity (ABL1 SH3; [6]): 0.995
confidence (ABL1 SH3; [6]): 4
overlap (ABL1 SH3; [6]): 1
replicates (ABL1 SH3; [6]): 6

HYLDLLALLLDSSEPRFSPPHSPPGPCMPEVFLEAAVALIQ [O15287.P386H]
mutant_found (ABL1 SH3): TRUE
wildtype_found (ABL1 SH3): TRUE
mutation_effect_on_PPI (ABL1 SH3; bait ABL1_SH3__P00519_60_121): no_effect
max_mutant_confidence (ABL1 SH3): 3
max_wildtype_confidence (ABL1 SH3): 4

HYLDLLALLLDSSEPRFSPPLSPPGPCMPEVFLEAAVALIQ [O15287.P386L]
mutant_found (ABL1 SH3): TRUE
wildtype_found (ABL1 SH3): TRUE
mutation_effect_on_PPI (ABL1 SH3; bait ABL1_SH3__P00519_60_121): no_effect
max_mutant_confidence (ABL1 SH3): 2
max_wildtype_confidence (ABL1 SH3): 4

KPPEEPGQCPAPEELPLFPPSGEPSLSPLLGEPALSEPGEP [O14686.P886S]
mutant_found (ABL1 SH3): TRUE
wildtype_found (ABL1 SH3): TRUE
mutation_effect_on_PPI (ABL1 SH3; bait ABL1_SH3__P00519_60_121): no_effect
max_mutant_confidence (ABL1 SH3): 1
max_wildtype_confidence (ABL1 SH3): 3

KPPEEPGQCPAPEELPLFPPTGEPSLSPLLGEPALSEPGEP [O14686.P886T]
mutant_found (ABL1 SH3): FALSE
wildtype_found (ABL1 SH3): TRUE
mutation_effect_on_PPI (ABL1 SH3; bait ABL1_SH3__P00519_60_121): diminished
max_wildtype_confidence (ABL1 SH3): 3

LDSSEPRFSPPLSPPG
promiscuity (ABL1 SH3; [6]): 1
specificity (ABL1 SH3; [6]): 1
mean_counts_% (ABL1 SH3; phage selection, bait ABL1_SH3__P00519_60_121, NGS counts): 0.0009534%
confidence (ABL1 SH3; [6]): 2
overlap (ABL1 SH3; [6]): 1
replicates (ABL1 SH3; [6]): 1

LSPVRSPTPPAAGFQPLLNGRLVPVPPTTPAPGVQLDVEAL [B1AK53.S719R]
mutant_found (ABL1 SH3): FALSE
wildtype_found (ABL1 SH3): TRUE
mutation_effect_on_PPI (ABL1 SH3; bait ABL1_SH3__P00519_60_121): no_effect
max_wildtype_confidence (ABL1 SH3): 2

NGSLVPVPPTTPAPGV
promiscuity (ABL1 SH3; [6]): 2
specificity (ABL1 SH3; [6]): 0.8421
confidence (ABL1 SH3; [6]): 2
overlap (ABL1 SH3; [6]): 0
replicates (ABL1 SH3; [6]): 4

O14647
max_promiscuity (KPNA4 ARM): 11
max_specificity (KPNA4 ARM): 0.5779

PLFPPPGEPSLSPLLG
promiscuity (ABL1 SH3; [6]): 2
specificity (ABL1 SH3; [6]): 0.9995
confidence (ABL1 SH3; [6]): 3
overlap (ABL1 SH3; [6]): 0
replicates (ABL1 SH3; [6]): 6
